SMILES strings stand for the structures. Where two headings read alike, the source gives them in different places.

The target of this assay is T1, TRPML1 (Homo sapiens, UniProt Q9GZU1).
T1 construct: expressed in transfected cells; host or cells: HEK T-REx cells stably expressing GCaMP6f and TRPML1
As to the kind of experiment: Cellular TRPML1 assay (FLIPR, GCaMP6f calcium read-out). The assay is classed as cell-based. As for the experimental part: Example A: Cellular TRPML1 Assay
The final clone for the TRPML1 assay is HEKT-REx/GCaMP6f/TRPML1. GCaMP6f is a genetically encoded calcium indicator that is stably expressed in this cell line and used as a fluorescent read-out.
Experiments were performed in 384 MTP format. Cells are seeded at 15000 cells/well in 20 μl/well of Optimem+0.5% FBS without selection antibiotics. Twenty-four hours later, cells are assayed for the response to various compounds using the Ca^2+ sensitive GCaMP6f protein stably expressed in the cells as readout.
The experiment was performed in a 384-well format according to the following procedures: • 24 h after seeding, the cells were pre-incubated at room temperature for about 10 min. • Started the experiment at the FLIPR^TETRA by injecting 10 μL/w of 3× concentrated test compounds and controls in Ca^2+ free Tyrode's buffer. Monitored the kinetic response over a period of 300 seconds. • Final DMSO concentration: 0.5%
Data from FLIPR^TETRA measurements were analyzed with the Genedata Screener© software.

The mark [1] stands for this setting: HEKT-REx/GCaMP6f/TRPML1 cells, FLIPR TETRA, kinetic response over 300 seconds, read-out: TRPML1 FLIPR pEC50 (converted).

T1 sequence (Q9GZU1 whole entry): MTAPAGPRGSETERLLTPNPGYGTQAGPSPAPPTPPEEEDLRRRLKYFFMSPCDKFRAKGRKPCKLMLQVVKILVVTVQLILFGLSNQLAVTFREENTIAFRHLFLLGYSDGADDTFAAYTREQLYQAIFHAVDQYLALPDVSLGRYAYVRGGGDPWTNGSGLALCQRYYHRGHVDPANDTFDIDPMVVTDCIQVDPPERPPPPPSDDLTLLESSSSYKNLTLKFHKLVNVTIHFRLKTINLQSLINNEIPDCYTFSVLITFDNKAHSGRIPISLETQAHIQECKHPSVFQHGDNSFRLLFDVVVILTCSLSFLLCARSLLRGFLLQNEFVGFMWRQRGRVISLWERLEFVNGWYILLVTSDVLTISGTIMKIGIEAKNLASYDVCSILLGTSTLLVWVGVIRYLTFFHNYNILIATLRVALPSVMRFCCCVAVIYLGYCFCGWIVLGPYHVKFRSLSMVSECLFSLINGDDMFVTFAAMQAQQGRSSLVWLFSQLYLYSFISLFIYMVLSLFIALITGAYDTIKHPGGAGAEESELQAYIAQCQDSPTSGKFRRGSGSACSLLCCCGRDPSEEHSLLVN

As for `COCCN(CC(C)C)c1nc(C(=O)Nc2cc(F)c(O[C@@H]3C[C@@H]4C[C@@H]4C3)c(F)c2)c(CC(F)(F)F)o1` [Example 147, N-(4-(cis-bicyclo[3.1.0]hexan-3-yloxy)-3,5-difluorophenyl)-2-(isobutyl(2-methoxyethyl)amino)-5-(2,2,2-trifluoroethyl)oxazole-4-carboxamide], the EC50 under setting [1] is 1 to 10 µM. The same measure, in the same setting: the value for `O=C(Nc1cc(F)c(O[C@@H]2C[C@@H]3C[C@@H]3C2)c(F)c1)c1nc(N2CC3(CCOC3)C2)oc1CC(F)(F)F` [Example 189, N-(4-(cis-bicyclo[3.1.0]hexan-3-yloxy)-3,5-difluorophenyl)-2-(6-oxa-2-azaspiro[3.4]octan-2-yl)-5-(2,2,2-trifluoroethyl)oxazole-4-carboxamide] was 0.01 to 1 µM; that for `CCC1(CC)CN(c2nc(C(=O)Nc3ccc(N4CCCCC4)c(F)c3)c(CC(F)(F)F)o2)C1` [Example 216, 2-(3,3-diethylazetidin-1-yl)-N-(3-fluoro-4-(piperidin-1-yl)phenyl)-5-(2,2,2-trifluoroethyl)oxazole-4-carboxamide] was 0.01 to 1 µM. The same measure, in the same setting: with `CCc1oc(N2CC(CC)(CC)C2)nc1C(=O)Nc1cc(C)c(NC2CC3CC(C3)C2)c(F)c1` (stereo not drawn) [Example 253, N-(4-(bicyclo[3.1.1]heptan-3-ylamino)-3-fluoro-5-methylphenyl)-2-(3,3-diethylazetidin-1-yl)-5-ethyloxazole-4-carboxamide] the figure was 1 to 10 µM; with `O=C(Nc1cc(F)c(O[C@@H]2C[C@@H]3C[C@@H]3C2)c(F)c1)c1nc(N2CC3(CCOCC3)C2)oc1CC(F)(F)F` [Example 188, N-(4-(cis-bicyclo[3.1.0]hexan-3-yloxy)-3,5-difluorophenyl)-2-(7-oxa-2-azaspiro[3.5]nonan-2-yl)-5-(2,2,2-trifluoroethyl)oxazole-4-carboxamide], 0.01 to 1 µM. For `O=C(Nc1cc(F)c(OC2CC3C[C@H]3C2)c(F)c1)c1nc(N2CC3(CCCC3)C2)oc1CC(F)(F)F` (stereo partly drawn) [Example 41, N-(4-(cis-bicyclo[3.1.0]hexan-3-yloxy)-3,5-difluorophenyl)-2-(2-azaspiro[3.4]octan-2-yl)-5-(2,2,2-trifluoroethyl)oxazole-4-carboxamide], the EC50 under setting [1] was 0.01 to 1 µM. Still for that read-out and setting: the value for `COCC1CCN(c2nc(C(=O)Nc3ccc(OC4CCCC4(F)F)c(F)c3)c(CC(F)(F)F)o2)C1` (stereo not drawn) [Example 7, N-(4-((2,2-difluorocyclopentyl)oxy)-3-fluorophenyl)-2-(3-(methoxymethyl)pyrrolidin-1-yl)-5-(2,2,2-trifluoroethyl)oxazole-4-carboxamide] was 1 to 10 µM; that for `O=C(Nc1cc(F)c(CN2CC3CC3C2)c(F)c1)c1nc(N2CCCC2)oc1CC(F)(F)F` (stereo not drawn) [Example 218, N-(4-{3-azabicyclo [3.1.0]hexan-3-ylmethyl}-3,5-difluorophenyl)-2-(pyrrolidin-1-yl)-5-(2,2,2-trifluoroethyl)-1,3-oxazole-4-carboxamide] was 10 to 100 µM; that for `O=C(Nc1cc(F)c(OC2CC3C[C@H]3C2)c(F)c1)c1nc(N2CC3CCCC3C2)oc1CC(F)(F)F` (stereo partly drawn) [Example 40, N-(4-{cis-bicyclo[3.1.0]hexan-3-yloxy}-3,5-difluorophenyl)-2-{octahydrocyclopenta[c]pyrrol-2-yl}-5-(2,2,2-trifluoroethyl)oxazole-4-carboxamide] was 0.01 to 1 µM. Same read-out and setting: with `O=C(Nc1ccc(OC2CCCC2(F)F)c(F)c1)c1nc(N2CCc3ccccc32)oc1CC(F)(F)F` (stereo not drawn) [Example 5, N-(4-((2,2-difluorocyclopentyl)oxy)-3-fluorophenyl)-2-(indolin-1-yl)-5-(2,2,2-trifluoroethyl)oxazole-4-carboxamide] the figure was 1 to 10 µM. The same measure, in the same setting: with `CCc1oc(N2CC3COCC3C2)nc1C(=O)Nc1cc(F)c(OC2CC3C[C@H]3C2)c(F)c1` (stereo partly drawn) [Example 237, N-(4-(cis-bicyclo[3.1.0]hexan-3-yloxy)-3,5-difluorophenyl)-5-ethyl-2-(tetrahydro-1H-furo[3,4-c]pyrrol-5(3H)-yl)oxazole-4-carboxamide] the figure was 0.01 to 1 µM; with `Cc1oc(N(C)C)nc1C(=O)Nc1ccc(N2CCCCC2)c(F)c1` [Example 117, 2-(dimethylamino)-N-(3-fluoro-4-(piperidin-1-yl)phenyl)-5-methyloxazole-4-carboxamide], 10 to 100 µM. `O=C(Nc1cc(F)c(N2CC3CC(C3)C2)c(F)c1)c1nc(N2CCC3(COC3)C2)oc1CC(F)(F)F` [Example 208, N-(4-(3-azabicyclo[3.1.1]heptan-3-yl)-3,5-difluorophenyl)-2-(2-oxa-6-azaspiro[3.4]octan-6-yl)-5-(2,2,2-trifluoroethyl)oxazole-4-carboxamide]: the EC50 lay within 0.01 to 1 µM. As to `CN(c1ccc(NC(=O)c2nc(N3CC4(C3)CC(F)(F)C4)oc2CC(F)(F)F)cc1F)C1CCCC1` [Example 79, N-{4-[cyclopentyl(methyl)amino]-3-fluorophenyl}-2-{6,6-difluoro-2-azaspiro[3.3]heptan-2-yl}-5-(2,2,2-trifluoroethyl)oxazole-4-carboxamide], under setting [1], the EC50 was 1 to 10 µM. On to `O=C(Nc1ccc(OC2CCCC2(F)F)c(F)c1)c1nc(N2CC(F)(F)C2)oc1CC(F)(F)F` (stereo not drawn) [Example 16, 2-(3,3-difluoroazetidin-1-yl)-N-{4-[(2,2-difluorocyclopentyl)oxy]-3-fluorophenyl}-5-(2,2,2-trifluoroethyl)oxazole-4-carboxamide], for which, under setting [1], the EC50 is 0.01 to 1 µM.

Turning to `O=C(Nc1cc(F)c(OC2CC3CCC2C3)c(F)c1)c1nc(N2CCCC2)oc1CC(F)(F)F` (stereo not drawn) [Example 141, N-(4-(bicyclo[2.2.1]heptan-2-yloxy)-3,5-difluorophenyl)-2-(pyrrolidin-1-yl)-5-(2,2,2-trifluoroethyl)oxazole-4-carboxamide], the EC50 under setting [1] is 0.01 to 1 µM. The same measure, in the same setting: with `CCC(C)Oc1ccc(NC(=O)c2nc(N3CCCC3)oc2CC(F)(F)F)cc1F` (stereo not drawn) [Example 59, N-(4-(sec-butoxy)-3-fluorophenyl)-2-(pyrrolidin-1-yl)-5-(2,2,2-trifluoroethyl)oxazole-4-carboxamide] the figure was 1 to 10 µM; with `CCCc1oc(N2CCCC2)nc1C(=O)Nc1cc(F)c(O[C@@H]2C[C@@H]3C[C@@H]3C2)c(F)c1` [Example 274, N-(4-(cis-bicyclo[3.1.0]hexan-3-yloxy)-3,5-difluorophenyl)-5-propyl-2-(pyrrolidin-1-yl)oxazole-4-carboxamide], 0.01 to 1 µM. Same read-out and setting: the value for `CCc1oc(N2CCCCCC2)nc1C(=O)Nc1cc(F)c(O[C@@H]2C[C@@H]3C[C@@H]3C2)c(F)c1` [Example 242, 2-(azepan-1-yl)-N-(4-(cis-bicyclo[3.1.0]hexan-3-yloxy)-3,5-difluorophenyl)-5-ethyloxazole-4-carboxamide] was 0.01 to 1 µM. Turning to `O=C(Nc1ccc(N2CCCCC2)c(F)c1)c1nc(N2C[C@H]3CCO[C@H]3C2)oc1CC(F)(F)F` [Example 26, 2-[(3aR,6aR)-hexahydro-5H-furo[2,3-c]pyrrol-5-yl]-N-[3-fluoro-4-(piperidin-1-yl)phenyl]-5-(2,2,2-trifluoroethyl)oxazole-4-carboxamide], the EC50 under setting [1] was 1 to 10 µM. On the same count and under the same terms, with `O=C(Nc1ccc(O[C@@H]2CC3C[C@@H]3C2)c(F)c1)c1nc(N2CC3OCOC3C2)oc1CC(F)(F)F` (stereo partly drawn) [Example 153, N-(4-(cis-bicyclo[3.1.0]hexan-3-yloxy)-3-fluorophenyl)-2-(tetrahydro-5H-[1,3]dioxolo[4,5-c]pyrrol-5-yl)-5-(2,2,2-trifluoroethyl)oxazole-4-carboxamide] the figure was 0.01 to 1 µM; with `CCC1(OC)CN(c2nc(C(=O)Nc3cc(F)c(OC4C[C@@H]5CC[C@H]4C5)c(F)c3)c(CC(F)(F)F)o2)C1` (stereo partly drawn) [Example 151, N-(4-(((1S,4R)-bicyclo[2.2.1]heptan-2-yl)oxy)-3,5-difluorophenyl)-2-(3-ethyl-3-methoxyazetidin-1-yl)-5-(2,2,2-trifluoroethyl)oxazole-4-carboxamide], 0.01 to 1 µM. Still for that read-out and setting: with `Cc1oc(N2C[C@H]3CCO[C@H]3C2)nc1C(=O)Nc1ccc(N2CCCCC2)c(F)c1` [Example 123, N-(3-fluoro-4-(piperidin-1-yl)phenyl)-2-((3aR,6aR)-hexahydro-5H-furo[2,3-c]pyrrol-5-yl)-5-methyloxazole-4-carboxamide] the figure was 1 to 10 µM. For `O=C(Nc1ccc(OC2CCCC2(F)F)c(F)c1)c1nc(N2CC(C(F)(F)F)C2)oc1CC(F)(F)F` (stereo not drawn) [Example 18, N-(4-((2,2-difluorocyclopentyl)oxy)-3-fluorophenyl)-5-(2,2,2-trifluoroethyl)-2-(3-(trifluoromethyl)azetidin-1-yl)oxazole-4-carboxamide], the EC50 under setting [1] is 0.01 to 1 µM. Take `O=C(Nc1ccc(OC2CCCC2(F)F)c(O)c1)c1nc(N2CCCC2)oc1CC(F)(F)F` (stereo not drawn) [Example 86, N-{4-[(2,2-difluorocyclopentyl)oxy]-3-hydroxyphenyl}-2-(pyrrolidin-1-yl)-5-(2,2,2-trifluoroethyl)-1,3-oxazole-4-carboxamide]: the EC50 under setting [1] was 1 to 10 µM. Still for that read-out and setting: the value for `CCC1(OC)CN(c2nc(C(=O)Nc3cc(F)c(OC4CCCOC4)c(F)c3)c(CC(F)(F)F)o2)C1` (stereo not drawn) [Example 160, N-(3,5-difluoro-4-((tetrahydro-2H-pyran-3-yl)oxy)phenyl)-2-(3-ethyl-3-methoxyazetidin-1-yl)-5-(2,2,2-trifluoroethyl)oxazole-4-carboxamide] was 0.01 to 1 µM; that for `CCC1(CC)CN(c2nc(C(=O)Nc3cc(F)c(N4CCCCC4)c(F)c3)c(CC(F)(F)F)o2)C1` [Example 215, 2-(3,3-diethylazetidin-1-yl)-N-(3,5-difluoro-4-(piperidin-1-yl)phenyl)-5-(2,2,2-trifluoroethyl)oxazole-4-carboxamide] was 0.01 to 1 µM.

The record behind these values is patent US12098145B2 (Libra Therapeutics, Inc., priority 2022, dated 2024).
